One data set has as its system normal pancreatic cells. The experiment in a line: Viability of normal pancreatic cells. The format is cell-based, Human. The settings on record: at 6 h. The method, then:
(§1) The synthesized compounds of Formula 1-4 were evaluated for cell proliferation, apoptosis, cell cycle arrest, the generation of reactive oxygen species and calcium were measured using MTT assay and flow cytometry, respectively. The expression of apoptosis- and proliferation-related proteins was determined by western blotting. The effect of molecules on apoptosis-related mRNA expression in cancer cells was detected by RT-PCR.
(§2) Changes in cell morphology were detected by the presence of cell membrane blebbing, chromatin condensation, and formation of apoptotic bodies (FIG. 10A).

The subject of data set [1] is xenograft nude mice models (triple-negative breast cancer, pancreatic, liver, colon cancer). Conditions: mouse, in vivo.
The test system is the same in data set [2]. The experiment in a line: In vivo metastasis / stage IV tumor studies in xenograft nude mice versus standard drugs.
For data set [3], the system named is panel of human normal cell lines. Nature of the data set: MTT cytotoxicity of anticancer agents on normal cell lines, alone and with Compound I. Conditions: Homo sapiens, read-out: IC50 (average). Here is the method: The cytotoxicity of anticancer agents was studied using a panel of human normal cell lines alone and with the combination of Compound I of the present invention. The cytotoxicity effect was determined by MTT assay. The following cell lines were used: Human epidermal keratinocytes cells (HaCaT), Human dermal fibroblast (HDF), Human bone marrow mesenchymal stem cells (HBMSCs), Human normal hepatocytes cells (THLE2), Human cardiac cells (AC-16), Human intestinal epithelial cells (HIEC-6), Human neuronal cells (SHSY-5Y), Human vascular Endothelial cells (HuVECs), Human lung epithelial cells (Calu-3), Human lung fibroblast (MRC 5).
Next, the cells were treated with anticancer agents in combination with Compound I of the present invention.

In data set [4] the test system is Pancreatic adenocarcinoma cells (PANC). Nature of the data set: MTT cell viability of pancreatic cancer cells. The format is cell-based, Human. Conditions: Homo sapiens, Pancreatic cancer cell. Here is the method: as §1, §2
For another data set, the system named is PANC-1 xenograft. The experiment in a line: PANC-1 xenograft mouse model. The format is in vivo. Conditions: day 5 to day 30; 25 mg/kg gemcitabine, 10 mg/kg Compound I. The method, then: Study Design: A PANC-1 xenograft mouse model was carried out according to the experimental design described in FIG. 21A. Tumor volume was monitored over a 30-day period upon administration of PBS alone (vehicle control), 25 mg/kg gemcitabine, and 10 mg/kg Compound I.

Where two headings read alike, the source gives them in different places.

On to `O=c1[nH]cc(F)c(=O)[nH]1` [5-Fluorouracil], for which the Toxicity is 40.32±0.98% with normal pancreatic cells and “Cardiotoxicity, Hepatotoxicity” in data set [1]. Besides, in data set [2] (mouse, in vivo), the “Antioxidant Activity (increased antioxidant parameters)” value is listed as 10% of. Also, in data set [2] (mouse, in vivo), the “Tumor volume (reduction / changes)” value is 35%. The mortality came out at 70% in data set [2] (nude, mouse, in vivo) and 70% in data set [2] (treating stage IV cancer). Further, the half-inhibitory concentration (IC50) was 12.9 to 40.5 µM in data set [3] and 5.21 ± 0.19 µM in data set [4] (PANC cells, after 24 hours of exposure). Also, the cytotoxicity at 10 µM in data set [4] (3 h, read-out: decrease in viable cells) is 30.21 ± 0.21%.

As to `CCN(CC)CCCC(C)Nc1ccnc2cc(Cl)ccc12` (stereo not shown) [Chloroquine], the IC50 in data set [3] is 12.9 to 40.5 µM.

With `COc1cccc2c1C(=O)c1c(O)c3c(c(O)c1C2=O)C[C@@](O)(C(=O)CO)C[C@@H]3O[C@H]1C[C@H](N)[C@H](O)[C@H](C)O1` [Doxorubicin], the IC50 in data set [3] lay within 12.9 to 40.5 µM.

Consider `Nc1ccn([C@@H]2O[C@H](CO)[C@@H](O)C2(F)F)c(=O)n1` [Gemcitabine], for which, in data set [1], the Toxicity result is “Developed”. For the same compound, the “CSCs (target on CSCs population)” value in data set [2] (mouse, in vivo) was found to be 5% Target on. Moreover, the mortality in data set [2] (nude, mouse, in vivo) is 50%; in data set [2] (treating stage IV cancer), 50%. The concentration for half-maximal inhibition (IC50) in data set [3] fell in the range of 12.9 to 40.5 µM. Besides, in the data set with PANC-1 xenograft, the tumor volume entry is given as “steadily increases”.

For `CCN(CCO)CCCC(C)Nc1ccnc2cc(Cl)ccc12` (stereo not shown) [Hydroxychloroquine], the IC50 in data set [3] was in the range of 12.9 to 40.5 µM.

For `CCc1c2c(nc3ccc(OC(=O)N4CCC(N5CCCCC5)CC4)cc13)-c1cc3c(c(=O)n1C2)COC(=O)[C@]3(O)CC` [Irinotecan], in data set [3], the half-inhibitory concentration (IC50) was 12.9 to 40.5 µM.

As to `Nc1cccc2c1CN(C1CCC(=O)NC1=O)C2=O` (stereo not shown) [Revlimid], in data set [1], the Toxicity result is “Cardiotoxicity, Hepatotoxicity, Toxicity to vital organs and normal tissues”. The mortality in data set [2] (nude, mouse, in vivo) amounted to 100%; in data set [2] (treating stage IV cancer) it was 100%.

On to `CC[C@]1(O)C[C@H]2CN(CCc3c([nH]c4ccccc34)[C@@](C(=O)OC)(c3cc4c(cc3OC)N(C=O)[C@H]3[C@@](O)(C(=O)OC)[C@H](OC(C)=O)[C@]5(CC)C=CCN6CC[C@]43[C@@H]65)C2)C1` [Vincristine], for which the IC50 in data set [3] lay in the range of 12.9 to 40.5 µM.

Take “Avastin: current treatment standard drug, Inhibition of VEGF”: in data set [2] (mouse, in vivo), the “Metastasis (prevention)” value was determined as 10%, the Toxicity entry is listed as “Toxic to vital”, the “Tumor volume (reduction / changes)” value turned out to be 20% and the mortality turned out to be 60%. Further, in data set [2] (treating stage IV cancer), the mortality is on record as 60%.

(Values after patent US20230270692A1, “COMPOUNDS FOR CHRONIC DISORDERS” (Pillai Universal LLC, priority 2020, published 2023).)
